Bounds are passed on as bounds.

The source of these data is PMC5253331 (Biochemical and biophysical research communications, 2016).

Assay [1] concerns hPD-L1 cells (CHO stably expressing human PD-L1) vs CHO cells. Put plainly: In vitro binding/uptake of [64Cu]WL12 in hPD-L1 and CHO cells. The assay is classed as cell-based, Chinese hamster.
Assay [2] deals with MDAMB231 and SUM149 cells. The assay is classed as cell-based, human. Particulars: MDAMB231 high, SUM149 low PD-L1 expression.
The next assay has as its system hPD-L1 and CHO tumors. Put plainly: Ex vivo biodistribution and blocking in NSG mice with hPD-L1 and CHO tumors. Also on record: species or system mouse. The conditions noted are these: co-injected with excess WL12 (50 μg, 2 mg/kg), 2 h.
For assay [3], the target named is recombinant human PD-L1(B7-H1)-His-tag protein (human) (UniProt Q9NZQ7). Put plainly: AlphaScreen or HTRF. In general terms: Bead proximity is the source of the signal in Alpha formats.
For assay [4], the target named is human PD-L1 on CHO cells stably expressing human PD-L1 (human) (UniProt Q9NZQ7). Put plainly: ex vivo biodistribution with blocking dose.
The target is the same in assay [5]. Put plainly: radioligand binding.
The target is the same in assay [6]. Put plainly: PET imaging and ex vivo biodistribution.

Chain of human PD-L1 on CHO cells stably expressing human PD-L1 (human) (Q9NZQ7 19-290): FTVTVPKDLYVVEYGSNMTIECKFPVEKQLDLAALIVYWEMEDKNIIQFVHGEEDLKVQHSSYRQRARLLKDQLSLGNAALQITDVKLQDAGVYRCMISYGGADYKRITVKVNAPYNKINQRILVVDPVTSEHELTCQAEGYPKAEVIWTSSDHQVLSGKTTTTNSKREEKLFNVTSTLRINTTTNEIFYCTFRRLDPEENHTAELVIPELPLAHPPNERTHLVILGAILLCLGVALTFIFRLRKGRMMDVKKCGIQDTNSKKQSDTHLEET
Chain of recombinant human PD-L1(B7-H1)-His-tag protein (human) (Q9NZQ7 19-238): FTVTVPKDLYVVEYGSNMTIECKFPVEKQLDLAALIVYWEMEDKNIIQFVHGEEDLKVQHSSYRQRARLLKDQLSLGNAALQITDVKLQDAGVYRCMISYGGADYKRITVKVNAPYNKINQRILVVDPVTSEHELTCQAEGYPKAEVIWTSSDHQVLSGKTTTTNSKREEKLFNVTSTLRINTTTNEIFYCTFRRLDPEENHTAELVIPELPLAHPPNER

For `CCCC[C@H]1C(=O)N(C)[C@@H](CCCC)C(=O)N[C@@H](CCCNC(=O)CCC(C(=O)O)N2CCN(CC(=O)O)CCN(CC(=O)O)CCN(CC(=O)O)CC2)C(=O)N[C@H](C(=O)NCC(N)=O)CSCC(=O)N[C@@H](Cc2ccc(O)cc2)C(=O)N(C)[C@@H](C)C(=O)N[C@@H](CC(N)=O)C(=O)N2CCC[C@H]2C(=O)N[C@@H](Cc2c[nH]cn2)C(=O)N[C@@H](CC(C)C)C(=O)N2C[C@H](O)C[C@H]2C(=O)N[C@@H](Cc2c[nH]c3ccccc23)C(=O)N[C@@H](CO)C(=O)N[C@@H](Cc2cn(C)c3ccccc23)C(=O)N1C` (some centres unmarked) [[^64Cu]WL12, metal not drawn], the “uptake of the incubated dose in hPD-L1 cells” value in assay [1] (hPD-L1 cells incubated with [64Cu]WL12 for 1 h) is reported as above 50%. The “reduction in bound [64Cu]WL12 in the presence of blocking dose of WL12” value in assay [1] (hPD-L1 cells, 1 μM blocking dose of WL12) is on record as above 95%. For the same compound, in assay [1] (incubation 1 h), the “increase in bound radioactivity in hPD-L1 cells compared to negative control CHO cells” value is 43 fold. The “uptake of radioactivity in MDAMB231 cells compared to SUM149 cells” value in assay [2] was “Two-fold higher”. For the same compound, in the assay with hPD-L1 and CHO tumors, the “change in %ID/g in control CHO tumors on blocking” value was “no significant difference” and the “change in kidney uptake on blocking” value was “reduced uptake”.

A word on the IC50: it is the midpoint of a concentration-inhibition curve. On to WL12 (peptide), for which the IC50 in assay [3] was found to be 22 nM. Moreover, in assay [4], the percent reduction in %ID/g of [64Cu]WL12 in hPD-L1 tumors with excess WL12 is above 75%.

For WL12-Cu (peptide), the IC50 in assay [3] is 2.9 nM.

In assay [5], [64Cu]WL12 (peptide) returned a percent uptake of the incubated dose above 50%. In addition, the tumor uptake at 1 h (%ID/g) in assay [6] was 14.9 %ID/g.
